In brackets after ≈: the same amount, converted by molar mass. Where a SMILES comes first, the peptide text is derived from it. [ ]: non-standard residue; d: D form. The star is where a group is joined. Leu(5,5,5,5',5',5'-F6) = N[C@@H](CC(C(F)(F)F)C(F)(F)F)C(=O)O; Lauroyl = CCCCCCCCCCCC(=O)*
Assays:
[1] = test system: Staphylococcus epidermidis; assay: Antimicrobial activity against methicillin-resistant Staphylococcus epidermidis; format: functional
Staphylococcus aureus = assay: Antimicrobial activity against methicillin-resistant Staphylococcus aureus; format: functional
Escherichia coli [2] = assay: Antimicrobial activity against Escherichia coli; format: functional
Aspergillus fumigatus [3] = assay: Antimicrobial activity against Aspergillus fumigatus; format: functional
[4] = Toxicity in RBC assessed as hemolysis at 25 uM; format: cell-based; conditions: erythrocyte
Bacillus subtilis = assay: Antimicrobial activity against Bacillus subtilis; format: functional
in vitro = conditions: red blood cells
Aspergillus fumigatus [5] = assay: Antimicrobial activity against Aspergillus fumigatus at pH 7.4; format: functional
Escherichia coli [6] = assay: Antimicrobial activity against Escherichia coli at pH 7.4; format: functional
Aspergillus fumigatus [7] = assay: Antimicrobial activity against Aspergillus fumigatus at pH 5.5; format: functional
[8] = Toxicity in RBC assessed as hemolysis at 50 uM at pH 7.4; format: cell-based; conditions: erythrocyte, pH 7.4, 50 µM
Escherichia coli [9] = assay: Antimicrobial activity against Escherichia coli at pH 5.5; format: functional

Row | MIC (Bacillus subtilis) [µM] | HC50 (in vitro) [µM] | Compound | MIC (Escherichia coli [2]) [µM] | further results
1 |  |  | NC[C@H]1O[C@@H](O[C@@H]2[C@@H](O[C@@H]3O[C@H](COC(=O)Nc4ccccc4)[C@@H](O[C@@H]4O[C@H](CN)[C@@H](O)[C@H](O)[C@H]4N)[C@H]3OC(=O)Nc3ccccc3)[C@@H](O)[C@H](N)C[C@@H]2N)[C@H](N)[C@@H](O)[C@@H]1O.O=C(O)C(F)(F)F |  | MIC [1]: 0.5 µg/mL; MIC (Staphylococcus aureus): 1 µg/mL
2 |  |  | CC(C)C[C@@H](N)C(=O)N[C@@H](CCCCN)C(=O)N[C@@H](CCCCN)C(=O)N[C@H](CC(C)C)C(=O)N[C@H](CC(C)C)C(=O)N[C@H](CC(C)C)C(=O)N[C@@H](CCCCN)C(=O)N[C@@H](CCCCN)C(=O)N[C@H](CC(C)C)C(=O)N[C@H](CC(C)C)C(=O)N[C@@H](CCCCN)C(=O)N[C@@H](CCCCN)C(=O)N[C@H](CC(C)C)C(N)=O | > 50 | MIC (Aspergillus fumigatus [3]): 50 µM (≈ 78.9 µg/mL); MHC [4]: Non-toxic
3 |  |  | CCCCCCCCCCCC(=O)N[C@H](CC(C)C)C(=O)N[C@@H](CCCCN)C(=O)N[C@@H](CCCCN)C(=O)N[C@H](CC(C)C)C(=O)N[C@H](CC(C)C)C(=O)N[C@H](CC(C)C)C(=O)N[C@@H](CCCCN)C(=O)N[C@@H](CCCCN)C(=O)N[C@H](CC(C)C)C(=O)N[C@H](CC(C)C)C(=O)N[C@@H](CCCCN)C(=O)N[C@@H](CCCCN)C(=O)N[C@H](CC(C)C)C(N)=O | 25 (≈ 44 µg/mL) | MIC (Aspergillus fumigatus [3]): 6.25 µM (≈ 11 µg/mL); MHC [4]: Non-toxic
4 | 5.9 (≈ 9.99 µg/mL) | > 235 | CC(C)[C@H](NC(=O)[C@H](CCCNC(=N)N)NC(=O)CNC(=O)[C@@H](NC(=O)[C@@H]1CCCN1C(=O)[C@@H](N)Cc1ccccc1)C(C)C)C(=O)N[C@@H](Cc1cnc[nH]1)C(=O)N[C@@H](CCCNC(=N)N)C(=O)N[C@@H](CC(C(F)(F)F)C(F)(F)F)C(=O)N[C@@H](CC(C(F)(F)F)C(F)(F)F)C(=O)N[C@@H](CCCNC(=N)N)C(=O)N[C@@H](CCCCN)C(=O)O (H-FPVGRVHR[Leu(5,5,5,5',5',5'-F6)][Leu(5,5,5,5',5',5'-F6)]RK-OH) | 23 (≈ 39 µg/mL) | 
5 | 0.92 (≈ 2.48 µg/mL) | 7.4 | CC[C@H](C)[C@H](NC(=O)CN)C(=O)NCC(=O)N[C@@H](CCCCN)C(=O)N[C@@H](Cc1ccccc1)C(=O)N[C@@H](CC(C(F)(F)F)C(F)(F)F)C(=O)N[C@@H](Cc1cnc[nH]1)C(=O)N[C@@H](C)C(=O)N[C@@H](C)C(=O)N[C@@H](CCCCN)C(=O)N[C@@H](CCCCN)C(=O)N[C@@H](Cc1ccccc1)C(=O)N[C@@H](C)C(=O)N[C@@H](CCCCN)C(=O)N[C@@H](C)C(=O)N[C@@H](Cc1ccccc1)C(=O)N[C@H](C(=O)N[C@@H](C)C(=O)N[C@@H](CCC(=O)O)C(=O)N[C@@H](CC(C(F)(F)F)C(F)(F)F)C(=O)N[C@@H](CCSC)C(=O)N[C@@H](CC(N)=O)C(=O)N[C@@H](CO)C(N)=O)C(C)C (H-GIGKF[Leu(5,5,5,5',5',5'-F6)]HAAKKFAKAFVAE[Leu(5,5,5,5',5',5'-F6)]MNS-NH2) | 0.92 (≈ 2.48 µg/mL) | 
6 |  |  | CCCCCCCCCCCC(=O)N[C@H](CC(C)C)C(=O)N[C@@H](Cc1cnc[nH]1)C(=O)N[C@@H](Cc1cnc[nH]1)C(=O)N[C@H](CC(C)C)C(=O)N[C@H](CC(C)C)C(=O)N[C@@H](Cc1cnc[nH]1)C(=O)N[C@@H](Cc1cnc[nH]1)C(=O)N[C@H](CC(C)C)C(=O)N[C@H](CC(C)C)C(=O)N[C@@H](Cc1cnc[nH]1)C(=O)N[C@@H](Cc1cnc[nH]1)C(=O)N[C@H](CC(C)C)C(N)=O (Lauroyl-[dL]HH[dL][dL]HH[dL][dL]HH[dL]-NH2) |  | MIC (Aspergillus fumigatus [5]): > 100 µM; MIC (Escherichia coli [6]): > 100 µM; MIC (Aspergillus fumigatus [7]): 6.2 µM (≈ 10.5 µg/mL); MHC [8]: Non-toxic; MIC (Escherichia coli [9]): > 100 µM

Row | Compound | MIC (Bacillus subtilis) [µM] | HC50 (in vitro) [µM] | MIC (Escherichia coli [2]) [µM] | further results
7 | CC[C@H](C)[C@H](NC(=O)CN)C(=O)NCC(=O)N[C@@H](CCCCN)C(=O)N[C@@H](Cc1ccccc1)C(=O)N[C@@H](CC(C)C)C(=O)N[C@@H](Cc1c[nH]cn1)C(=O)N[C@@H](CO)C(=O)N[C@@H](C)C(=O)N[C@@H](CCCCN)C(=O)N[C@@H](CCCCN)C(=O)N[C@@H](Cc1ccccc1)C(=O)NCC(=O)N[C@@H](CCCCN)C(=O)N[C@@H](C)C(=O)N[C@@H](Cc1ccccc1)C(=O)N[C@H](C(=O)NCC(=O)N[C@@H](CCC(=O)O)C(=O)N[C@H](C(=O)N[C@@H](CCSC)C(=O)N[C@@H](CC(N)=O)C(=O)N[C@@H](CO)C(=O)O)[C@@H](C)CC)C(C)C [MAGAININ 2] (H-GIGKFLHSAKKFGKAFVGEIMNS-OH) | 1 (≈ 2.47 µg/mL) | 70.6 | 1 (≈ 2.47 µg/mL) | 

— ChEMBL document CHEMBL1671744 (Antimicrob Agents Chemother, 2010)
